Assay results as given in the NIST ThermoML archive (doi:10.1016/j.fluid.2010.10.028).

Assay: xn = mol fraction of the nth substance listed
Conditions: Liquid, Vibrating tube method

CC(C)=O [acetone] + CCCCCCC
Conditions	mass density [kg/m3]
407.24 K, 19810 kPa, x1 = 0.7024	645.07
407.24 K, 34830 kPa, x1 = 0.7024	668.11
407.24 K, 39830 kPa, x1 = 0.7024	674.52
407.24 K, 44820 kPa, x1 = 0.7024	680.48
407.24 K, 49810 kPa, x1 = 0.7024	686.06
407.24 K, 54890 kPa, x1 = 0.7024	691.39
407.24 K, 59890 kPa, x1 = 0.7024	696.35
407.24 K, 64860 kPa, x1 = 0.7024	701.02
407.24 K, 69850 kPa, x1 = 0.7024	705.48
407.24 K, 74830 kPa, x1 = 0.7024	709.73
407.24 K, 79820 kPa, x1 = 0.7024	713.81
407.24 K, 84800 kPa, x1 = 0.7024	717.74
407.24 K, 94760 kPa, x1 = 0.7024	725.11
407.24 K, 99830 kPa, x1 = 0.7024	728.64
407.24 K, 119800 kPa, x1 = 0.7024	741.56
407.25 K, 89790 kPa, x1 = 0.7024	721.47
407.25 K, 104820 kPa, x1 = 0.7024	732.04
407.25 K, 109820 kPa, x1 = 0.7024	735.31
407.25 K, 114820 kPa, x1 = 0.7024	738.47
407.25 K, 124810 kPa, x1 = 0.7024	744.56
407.25 K, 129820 kPa, x1 = 0.7024	747.45
417.16 K, 1870 kPa, x1 = 0.611	581.34
417.16 K, 4870 kPa, x1 = 0.611	591.69
417.16 K, 9860 kPa, x1 = 0.611	605.85
417.16 K, 14870 kPa, x1 = 0.611	617.52
417.16 K, 19870 kPa, x1 = 0.611	627.57
417.16 K, 29860 kPa, x1 = 0.611	644.4
417.16 K, 34860 kPa, x1 = 0.611	651.63
417.16 K, 44870 kPa, x1 = 0.611	664.46
417.16 K, 49860 kPa, x1 = 0.611	670.17
417.16 K, 54850 kPa, x1 = 0.611	675.54
417.16 K, 59830 kPa, x1 = 0.611	680.59
417.16 K, 64940 kPa, x1 = 0.611	685.5
417.16 K, 69910 kPa, x1 = 0.611	690.02
417.16 K, 74900 kPa, x1 = 0.611	694.35
417.16 K, 79880 kPa, x1 = 0.611	698.49
417.16 K, 84870 kPa, x1 = 0.611	702.46
417.16 K, 89850 kPa, x1 = 0.611	706.26
417.16 K, 94840 kPa, x1 = 0.611	709.93
417.16 K, 99820 kPa, x1 = 0.611	713.43
417.16 K, 119850 kPa, x1 = 0.611	726.48
417.17 K, 1870 kPa, x1 = 0.492	575.55
417.17 K, 4860 kPa, x1 = 0.492	585.56
417.17 K, 9850 kPa, x1 = 0.492	599.32
417.17 K, 24840 kPa, x1 = 0.611	636.42
417.17 K, 39880 kPa, x1 = 0.611	658.3
417.17 K, 44850 kPa, x1 = 0.492	656.44
417.17 K, 49850 kPa, x1 = 0.492	662.04
417.17 K, 54840 kPa, x1 = 0.492	667.29
417.17 K, 59840 kPa, x1 = 0.492	672.26
417.17 K, 104790 kPa, x1 = 0.611	716.82
417.17 K, 104800 kPa, x1 = 0.492	707.7
417.17 K, 109770 kPa, x1 = 0.492	710.89
417.17 K, 109780 kPa, x1 = 0.611	720.13
417.17 K, 114870 kPa, x1 = 0.611	723.4
417.17 K, 124850 kPa, x1 = 0.611	729.46
417.17 K, 129850 kPa, x1 = 0.611	732.41
417.18 K, 1840 kPa, x1 = 0.801	597.33
417.18 K, 4870 kPa, x1 = 0.801	607.96
417.18 K, 14870 kPa, x1 = 0.492	610.71
417.18 K, 19870 kPa, x1 = 0.492	620.5
417.18 K, 24830 kPa, x1 = 0.492	629.07
417.18 K, 29860 kPa, x1 = 0.492	636.88
417.18 K, 34860 kPa, x1 = 0.492	643.95
417.18 K, 39860 kPa, x1 = 0.492	650.43
417.18 K, 64820 kPa, x1 = 0.492	676.9
417.18 K, 69910 kPa, x1 = 0.492	681.45
417.18 K, 74890 kPa, x1 = 0.492	685.69
417.18 K, 79880 kPa, x1 = 0.492	689.75
417.18 K, 84870 kPa, x1 = 0.492	693.62
417.18 K, 89860 kPa, x1 = 0.492	697.34
417.18 K, 94830 kPa, x1 = 0.492	700.9
417.18 K, 99820 kPa, x1 = 0.492	704.36
417.18 K, 114850 kPa, x1 = 0.492	714.07
417.18 K, 119830 kPa, x1 = 0.492	717.08
417.18 K, 124850 kPa, x1 = 0.492	720.01
417.18 K, 129840 kPa, x1 = 0.492	722.86
417.19 K, 2070 kPa, x1 = 0.4	611.4
417.19 K, 2070 kPa, x1 = 0.8992	611.4
417.19 K, 5030 kPa, x1 = 0.4	621.55
417.19 K, 5030 kPa, x1 = 0.8992	621.55
417.19 K, 9870 kPa, x1 = 0.801	622.44
417.19 K, 10010 kPa, x1 = 0.4	635.78
417.19 K, 10010 kPa, x1 = 0.8992	635.78
417.19 K, 14860 kPa, x1 = 0.801	634.41
417.19 K, 15000 kPa, x1 = 0.4	647.66
417.19 K, 15000 kPa, x1 = 0.8992	647.66
417.19 K, 19860 kPa, x1 = 0.801	644.76
417.19 K, 19970 kPa, x1 = 0.4	657.99
417.19 K, 19970 kPa, x1 = 0.8992	657.99
417.19 K, 24870 kPa, x1 = 0.801	653.93
417.19 K, 24970 kPa, x1 = 0.4	667.12
417.19 K, 24970 kPa, x1 = 0.8992	667.12
417.19 K, 29860 kPa, x1 = 0.801	662.11
417.19 K, 29960 kPa, x1 = 0.4	675.37
417.19 K, 29960 kPa, x1 = 0.8992	675.37
417.19 K, 34850 kPa, x1 = 0.801	669.57
417.19 K, 34950 kPa, x1 = 0.4	682.9
417.19 K, 34950 kPa, x1 = 0.8992	682.9
417.19 K, 39860 kPa, x1 = 0.801	676.46
417.19 K, 39930 kPa, x1 = 0.4	689.8
417.19 K, 39930 kPa, x1 = 0.8992	689.8
417.19 K, 44860 kPa, x1 = 0.801	682.8
417.19 K, 44890 kPa, x1 = 0.7024	672.51
417.19 K, 49870 kPa, x1 = 0.801	688.76
417.19 K, 49890 kPa, x1 = 0.4	702.22
417.19 K, 49890 kPa, x1 = 0.7024	678.35
417.19 K, 49890 kPa, x1 = 0.8992	702.22
417.19 K, 54860 kPa, x1 = 0.801	694.3
417.19 K, 54870 kPa, x1 = 0.4	707.85
417.19 K, 54870 kPa, x1 = 0.8992	707.85
417.19 K, 54880 kPa, x1 = 0.7024	683.78
417.19 K, 59860 kPa, x1 = 0.7024	688.95
417.19 K, 59870 kPa, x1 = 0.801	699.57
417.19 K, 64830 kPa, x1 = 0.801	704.51
417.19 K, 69830 kPa, x1 = 0.801	709.22
417.19 K, 74920 kPa, x1 = 0.801	713.82
417.19 K, 79790 kPa, x1 = 0.7024	707.06
417.19 K, 79800 kPa, x1 = 0.4	732.02
417.19 K, 79800 kPa, x1 = 0.8992	732.02
417.19 K, 79910 kPa, x1 = 0.801	718.11
417.19 K, 84890 kPa, x1 = 0.801	722.24
417.19 K, 89750 kPa, x1 = 0.4	740.27
417.19 K, 89750 kPa, x1 = 0.8992	740.27
417.19 K, 94870 kPa, x1 = 0.801	730.03
417.19 K, 104800 kPa, x1 = 0.801	737.2
417.19 K, 114770 kPa, x1 = 0.801	743.97
417.19 K, 119800 kPa, x1 = 0.7024	735.65
417.19 K, 119830 kPa, x1 = 0.801	747.24
417.19 K, 124820 kPa, x1 = 0.7024	738.72
417.19 K, 124830 kPa, x1 = 0.801	750.39
417.19 K, 129810 kPa, x1 = 0.7024	741.7
417.19 K, 129840 kPa, x1 = 0.801	753.43
417.2 K, 1810 kPa, x1 = 0.7024	587.77
417.2 K, 4810 kPa, x1 = 0.7024	598.33
417.2 K, 9830 kPa, x1 = 0.7024	612.79
417.2 K, 14820 kPa, x1 = 0.7024	624.66
417.2 K, 19830 kPa, x1 = 0.7024	634.93
417.2 K, 24810 kPa, x1 = 0.7024	643.93
417.2 K, 29810 kPa, x1 = 0.7024	652.02
417.2 K, 34810 kPa, x1 = 0.7024	659.38
417.2 K, 39820 kPa, x1 = 0.7024	666.17
417.2 K, 44910 kPa, x1 = 0.4	696.21
417.2 K, 44910 kPa, x1 = 0.8992	696.21
417.2 K, 59870 kPa, x1 = 0.4	713.19
417.2 K, 59870 kPa, x1 = 0.8992	713.19
417.2 K, 64850 kPa, x1 = 0.4	718.24
417.2 K, 64850 kPa, x1 = 0.7024	693.8
417.2 K, 64850 kPa, x1 = 0.8992	718.24
417.2 K, 69820 kPa, x1 = 0.4	723.05
417.2 K, 69820 kPa, x1 = 0.8992	723.05
417.2 K, 69830 kPa, x1 = 0.7024	698.42
417.2 K, 74810 kPa, x1 = 0.4	727.63
417.2 K, 74810 kPa, x1 = 0.8992	727.63
417.2 K, 74820 kPa, x1 = 0.7024	702.83
417.2 K, 84780 kPa, x1 = 0.4	736.22
417.2 K, 84780 kPa, x1 = 0.7024	711.1
417.2 K, 84780 kPa, x1 = 0.8992	736.22
417.2 K, 89760 kPa, x1 = 0.7024	714.98
417.2 K, 89890 kPa, x1 = 0.801	726.21
417.2 K, 94720 kPa, x1 = 0.4	744.15
417.2 K, 94720 kPa, x1 = 0.8992	744.15
417.2 K, 94740 kPa, x1 = 0.7024	718.71
417.2 K, 99690 kPa, x1 = 0.4	747.91
417.2 K, 99690 kPa, x1 = 0.8992	747.91
417.2 K, 99840 kPa, x1 = 0.7024	722.39
417.2 K, 99840 kPa, x1 = 0.801	733.67
417.2 K, 104650 kPa, x1 = 0.4	751.51
417.2 K, 104650 kPa, x1 = 0.8992	751.51
417.2 K, 104810 kPa, x1 = 0.7024	725.87
417.2 K, 109620 kPa, x1 = 0.4	755.03
417.2 K, 109620 kPa, x1 = 0.8992	755.03
417.2 K, 109800 kPa, x1 = 0.801	740.64
417.2 K, 109810 kPa, x1 = 0.7024	729.22
417.2 K, 114590 kPa, x1 = 0.4	758.45
417.2 K, 114590 kPa, x1 = 0.8992	758.45
417.2 K, 114820 kPa, x1 = 0.7024	732.49
417.2 K, 119550 kPa, x1 = 0.4	761.72
417.2 K, 119550 kPa, x1 = 0.8992	761.72
417.2 K, 124810 kPa, x1 = 0.4	765.12
417.2 K, 124810 kPa, x1 = 0.8992	765.12
417.2 K, 129820 kPa, x1 = 0.4	768.24
417.2 K, 129820 kPa, x1 = 0.8992	768.24
